Results published in the NIST ThermoML archive (doi:10.1021/je050182i).
Values joined by “and” are separate entries in the source; they are usually repeats but may differ in a detail not shown here. Identical values can stand only once.

Conditions: Liquid

CCCCCCCCCCCCCCCCCCCCCCCCCCC [heptacosane]
Conditions	vapor or sublimation pressure
401.68 K	0.000592 kPa
401.69 K	0.00059 kPa
411.78 K	0.00129 kPa
411.81 K	0.0013 kPa
421.93 K	0.00269 kPa
421.95 K	0.00272 kPa
432.03 K	0.00556 kPa
442.18 K	0.011 kPa
452.27 K	0.0214 kPa
462.27 K	0.0405 kPa and 0.0401 kPa

CCCCCCCCCCCCCCCCCCCCC [heneicosane]
Conditions	vapor or sublimation pressure [kPa]
351.54 K	0.000396
361.52 K	0.000971
371.42 K	0.0022
381.65 K	0.00498
391.86 K	0.0106
402.05 K	0.0213
422.19 K	0.0751
432.27 K	0.133
442.3 K	0.228
452.22 K	0.378
461.96 K	0.611

CCCCCCCCCCCCCCCCCCCCCCC [tricosane]
Conditions	vapor or sublimation pressure [kPa]
412.18 K	0.0129
422.26 K	0.0248
422.29 K	0.0247
432.34 K	0.0461
442.33 K	0.0839
452.22 K	0.143
461.99 K	0.242

CCCCCCCCCCCCCCCCCCCCCCCCC [pentacosane]
Conditions	vapor or sublimation pressure
381.69 K	0.000331 kPa
391.91 K	0.000783 kPa
402.03 K	0.00178 kPa
411.75 K	0.00383 kPa
411.78 K	0.00383 kPa
422.02 K	0.00802 kPa
432.21 K	0.0158 kPa
442.33 K	0.0296 kPa
442.34 K	0.0299 kPa
452.24 K	0.0541 kPa
452.25 K	0.0534 kPa
461.95 K	0.0926 kPa
461.98 K	0.0923 kPa and 0.0938 kPa

CCCCCCCCCCCCCCCCCCCCCCCCCCCCC [nonacosane]
Conditions	vapor or sublimation pressure
422.1 K	0.00097 kPa and 0.000971 kPa
432.12 K	0.00206 kPa
442.17 K	0.00421 kPa
442.19 K	0.00417 kPa
452.2 K	0.00824 kPa
452.23 K	0.00819 kPa

CCCCCCCCCCCCCCCCCCCCCCCCCCCCCC [triacontane]
Conditions	vapor or sublimation pressure [kPa]
432.36 K	0.00115
432.37 K	0.00113
442.48 K	0.00233
452.32 K	0.00457
452.34 K	0.00451
